Results: paper PMC8662641, “Site-Specific Labeling of Endogenous Proteins Using CoLDR Chemistry” (Journal of the American Chemical Society, 2021)

Tests used:
[1] = target: BTK (Homo sapiens, UniProt Q06187); parameters: BTK kinase domain was expressed and purified as previously reported; made in house; method as in Reddi et al., J. Am. Chem. Soc. 2021, 143 (13), 4979–4992; settings: ref Reddi et al., J. Am. Chem. Soc. 2021, 143 (13), 4979–4992; cited from earlier work
[2] = target: T1, BTK-1h (Homo sapiens, UniProt Q06187); assay: High-throughput screening with 1h-labeled BTK; type: binding; settings: Dataset S2A; 200 μM compound, BTK-1h, 32 °C, 10 min
T1 construct: The BTK kinase domain was diluted to 2 μM in the buffer, and 2 μM 1h was added; made in house
T1 sequence (Q06187 402-655): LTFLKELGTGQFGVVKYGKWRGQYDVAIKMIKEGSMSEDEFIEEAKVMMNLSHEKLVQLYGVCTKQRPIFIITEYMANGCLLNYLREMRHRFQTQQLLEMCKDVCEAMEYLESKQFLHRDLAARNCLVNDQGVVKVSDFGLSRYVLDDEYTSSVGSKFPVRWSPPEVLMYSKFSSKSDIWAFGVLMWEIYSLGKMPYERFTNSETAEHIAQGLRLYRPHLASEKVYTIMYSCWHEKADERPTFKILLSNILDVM
Procedure: The collection was composed of BTK binding compounds obtained in our previous luminescence screen[37] (Data set S2). […] The resulting BTK-1h (50 μL) was added to the inhibitors.

BTK, sequence (Q06187 402-655 limits assumed): as the sequence (Q06187 402-655) above

Row | SMILES | FI (650)/FI (620) [2] | FI (BTK-1h)/FI (BTK-1h+Inhibitor) at 620 nm [2] | BTK Inhibition reported in luminescence assay* [1]
1 | O=C(NCCCNc1nc(Nc2cccc(NC(=O)N3CCCC3)c2)ncc1I)c1cccs1 [PCM-0095061-002] | 1.86 | 1.055 | 60
2 | CNC(=O)c1cc(Oc2ccc(NC(=O)Nc3cc(C(C)(C)C)nn3-c3ccc4ncccc4c3)c(F)c2)ccn1 [PCM-0095514-002] | 1.156 | 1.374 | 98.6
3 | CCOC(=O)c1ccc(N2NC(=O)/C(=C/c3ccc([N+](=O)[O-])o3)C2=O)cc1 [PCM-0095807-002] | 2.739 | 1.077 | 64.9
4 | NC(=O)c1cnc2[nH]ccc2c1NC1[C@@H]2CC3C[C@H]1CC(O)(C3)C2 (stereo partly drawn) [PCM-0215550-001] | 1.093 | 1.086 | 94.5
5 | COc1cc(N2CCC(N(C)C)CC2)ccc1Nc1ncc(Cl)c(Nc2ccccc2P(C)(C)=O)n1 [PCM-0215177-001] | 1.083 | 1.158 | 64.8
6 | C=CC(=O)Nc1cc(Nc2nccc(-c3c[nH]c4ccccc34)n2)c(OC)cc1N(C)CCN(C)C [PCM-0215489-001] | 1.101 | 1.031 | 91.7
7 | COc1cccc2c1C(=O)c1c(O)c3c(c(O)c1C2=O)C[C@@](O)(C(=O)CO)C[C@@H]3O[C@H]1C[C@H](N)[C@H](O[C@@H]2CCCCO2)[C@H](C)O1 [PCM-0214749-001] | 0.7711 | 1.012 | 53.7
8 | Cl.N/C(=N\N=C\c1ccc(Cl)cc1)N/N=C/c1ccc(Cl)cc1 [PCM-0215125-001] | 1.174 | 1.002 | 77.8

Further lines, with some results ahead:

Row | FI (650)/FI (620) [2] | FI (BTK-1h)/FI (BTK-1h+Inhibitor) at 620 nm [2] | SMILES | BTK Inhibition reported in luminescence assay* [1]
9 | 1.147 | 1.02 | Cc1nc(Nc2ccc(F)cc2)nc(N2CCc3ccccc3C2C)c1C.Cl (stereo not drawn) [PCM-0216015-001] | 79.3
10 | 0.9282 | 1.039 | C=CC(=O)Nc1ccc2ncnc(Nc3ccc(OCc4cccc(F)c4)c(Cl)c3)c2c1.Cc1ccc(S(=O)(=O)O)cc1 [PCM-0095229-002] | 109.7
11 | 0.9726 | 1.02 | CCOC(=O)c1ccc(NC(=O)O[C@H]2[C@H](OC(=O)Nc3ccc4c(c3)OCO4)[C@@H](OC(=O)Nc3ccc4c(c3)OCO4)[C@@H](OC)O[C@@H]2CO)cc1 [PCM-0215463-001] | 98.1
12 | 0.8604 | 1.035 | COCCOC(=O)C1=C(C)NC(C)=C(C(=O)OC/C=C/c2ccccc2)C1c1cccc([N+](=O)[O-])c1 (stereo not drawn) [PCM-0065102-001] | 59.9
13 | 1.221 | 1.15 | CN1CCN(Cc2ccc(Nc3ncc(Cl)c(Nc4ccccc4S(=O)(=O)N(C)C)n3)cc2)CC1 [PCM-0215510-001] | 67.2
14 | 1.794 | 1.194 | CN1c2ccccc2C(=O)Nc2cnc(Nc3ccc(N4CCC(O)CC4)cc3)nc21 [PCM-0215745-001] | 93.8
